Assay results taken from patent US6706740B2, “Fungicidal heterocyclic aromatic amides and their compositions, methods of use and preparation” (Dow AgroSciences LLC, priority 1999, dated 2004).
Read-outs that look alike come from different tables or passages of the source.

Tests used:
[1] = system: Puccinia recondita—PUCCRT; assay: Brown Rust of Wheat, in vivo whole plant, 24 Hour Protectant; conditions: for pest or weed control at 100 ppm: Puccinia, read-out: PUCCRT in vivo 1 Day Protectant
[2] = system: Phytophthora infestans (PHYTIN); assay: microbe, parasite or virus in culture; assay type: cell-based; conditions: Phytophthora infestans, read-out: PHYTIN in vitro Growth Inhibition
[3] = system: Stagonospora nodorum (Leptosphaeria nodorum—LEPTNO); assay: In vitro fungal growth inhibition, Stagonospora nodorum (LEPTNO); assay type: cell-based; conditions: Leptosphaeria, read-out: LEPTNO in vitro Growth Inhibition
[4] = system: Magnaporthe grisea (Pyricularia oryzae—PYRIOR); assay: microbe, parasite or virus in culture; assay type: cell-based; conditions: Pyricularia oryzae, read-out: PYRIOR in vitro Growth Inhibition
[5] = system: Rhizoctonia solani (RHIZSO); assay: microbe, parasite or virus in culture; assay type: cell-based; conditions: Rhizoctonia solani, read-out: RHIZSO in vitro Growth Inhibition
[6] = system: Mycosphaerella graminicola (Septoria tritici—SEPTTR); assay: In vitro fungal growth inhibition, Mycosphaerella graminicola (SEPTTR); assay type: cell-based; conditions: Zymoseptoria tritici, read-out: SEPTTR in vitro Growth Inhibition
[7] = system: Ustilago maydis (USTIMA); assay: microbe, parasite or virus in culture; assay type: cell-based; conditions: Mycosarcoma maydis, read-out: USTIMA in vitro Growth Inhibition
[8] = system: Septoria tritici—SEPTTR; assay: Leaf Blotch of Wheat, in vivo whole plant, 24 Hour Protectant; conditions: for pest or weed control at 100 ppm: Zymoseptoria tritici, 24 h, read-out: SEPTTR in vivo 1 Day Protectant
[9] = system: Leptosphaeria nodorum—LEPTNO; assay: Glume Blotch of Wheat, in vivo whole plant, 24 Hour Protectant; conditions: for pest or weed control at 100 ppm: Leptosphaeria, read-out: LEPTNO in vivo 1 Day Protectant
[10] = system: Erysiphe graminis—ERYSGT; assay: Powdery Mildew of Wheat, in vivo whole plant, 24 Hour Protectant; conditions: Erysiphe, read-out: ERYSGT in vivo 1 Day Protectant
[11] = system: Phytophthora infestans—PHYTIN; assay: whole plant or invertebrate; assay type: in vivo; conditions: Phytophthora, in Solanum lycopersicum, 24 h, read-out: PHYTIN in vivo 1 Day Protectant
[12] = 100 ppm spray, 24 hour protectant, wheat, control of fungal infection vs untreated plants
[13] = wheat plants sprayed at 100 ppm, inoculated after 24 hours, control of fungal infection vs untreated plants
[14] = 100 ppm spray, wheat, 24 hour protectant, control of fungal infection vs untreated plants
[15] = 100 ppm spray, wheat, 24 hour protectant, % control of fungal infection vs untreated plants

| Structure (SMILES) | inhibition at 25 ppm [2] [%] | inhibition at 25 ppm ([3]; 25 ppm in growth medium) [%] | inhibition at 25 ppm [4] [%] | inhibition at 25 ppm [5] [%] | inhibition at 25 ppm ([6]; 25 ppm in growth medium) [%] | inhibition at 25 ppm [7] [%] | pest or weed control at 100 ppm [11] [%] | also measured |
| --- | --- | --- | --- | --- | --- | --- | --- | --- |
| C[C@H](NC(=O)c1ncccc1O)c1cccc2ccccc12 [Compound 232] | < 80 | < 80 | > 80 | < 80 | > 80 | < 80 | < 25 | pest or weed control at 100 ppm [1, 12]: < 25%; pest or weed control at 100 ppm [8, 12]: < 25%; pest or weed control at 100 ppm [9, 12]: < 25%; pest or weed control at 100 ppm [10, 12]: 25 to 74% |
| COc1ccnc(C(=O)NC(C)c2ccc(C(F)(F)F)cc2)c1O (stereo not shown) [Compound 247] | < 80 | > 80 | < 80 | < 80 | > 80 | < 80 | < 25 | pest or weed control at 100 ppm [1, 12]: < 25%; pest or weed control at 100 ppm [8, 12]: 25 to 74%; pest or weed control at 100 ppm [9, 12]: 25 to 74%; pest or weed control at 100 ppm [10, 12]: < 25% |
| COC(=O)C(COC(=O)COCc1ccccc1)NC(=O)c1nccc(OC)c1OC(C)=O (stereo not shown) [Compound 585] | < 80 | – | < 80 | < 80 | – | < 80 | < 25 | pest or weed control at 100 ppm [1, 13]: 25 to 74%; inhibition at 25 ppm ([3]; 25 ppm in the growth medium): < 80%; inhibition at 25 ppm ([6]; 25 ppm in the growth medium): < 80%; pest or weed control at 100 ppm [8, 13]: 25 to 74%; pest or weed control at 100 ppm [9, 13]: 25 to 74%; pest or weed control at 100 ppm [10, 13]: < 25% |
| COC(=O)C(COC(=O)CCc1ccccc1)NC(=O)c1nccc(OC)c1O (stereo not shown) [Compound 344] | < 80 | > 80 | < 80 | < 80 | < 80 | < 80 | < 25 | pest or weed control at 100 ppm [1, 14]: < 25%; pest or weed control at 100 ppm [8, 14]: 25 to 74%; pest or weed control at 100 ppm [9, 14]: 25 to 74%; pest or weed control at 100 ppm [10, 14]: < 25% |
| COc1ccnc(C(=O)NCC2C(C=C(C)C)C2(C)C)c1O (stereo not shown) [Compound 241] | > 80 | < 80 | < 80 | > 80 | < 80 | < 80 | < 25 | pest or weed control at 100 ppm [1, 12]: 25 to 74%; pest or weed control at 100 ppm [8, 12]: 25 to 74%; pest or weed control at 100 ppm [9, 12]: 25 to 74%; pest or weed control at 100 ppm [10, 12]: < 25% |
| COc1ccc(C(C)NC(=O)c2ccncc2O)cc1 (stereo not shown) [Compound 508] | < 80 | – | < 80 | < 80 | – | < 80 | < 25 | pest or weed control at 100 ppm [1, 13]: < 25%; inhibition at 25 ppm ([3]; 25 ppm in the growth medium): < 80%; inhibition at 25 ppm ([6]; 25 ppm in the growth medium): < 80%; pest or weed control at 100 ppm [8, 13]: < 25%; pest or weed control at 100 ppm [9, 13]: < 25%; pest or weed control at 100 ppm [10, 13]: < 25% |
| COc1ccnc(C(=O)N[C@H]2COC(=O)[C@H](Cc3ccccc3)[C@@H](OC(=O)C(C)C)[C@H](C)OC2=O)c1OC(=O)C1CCCC1 [Compound 611] | < 80 | < 80 | < 80 | < 80 | < 80 | < 80 | < 25 | PUCCRT in vivo 1 Day Protectant [1, 15]: + +; SEPTTR in vivo 1 Day Protectant [8, 15]: + +; LEPTNO in vivo 1 Day Protectant [9, 15]: + +; pest or weed control at 100 ppm [10, 15]: < 25% |
| COc1ccnc(C(=O)NC2CCN(C(=O)c3ccccc3)CC2)c1O [Compound 308] | – | – | – | – | – | < 80 | < 25 | pest or weed control at 100 ppm [1, 12]: < 25%; pest or weed control at 100 ppm [8, 12]: 25 to 74%; pest or weed control at 100 ppm [9, 12]: < 25%; pest or weed control at 100 ppm [10, 12]: 25 to 74% |
| COc1ccnc(C(=O)N[C@H]2COC(=O)[C@H](Cc3ccccc3)C[C@H](C)OC2=O)c1O [Compound 382] | < 80 | < 80 | < 80 | < 80 | > 80 | < 80 | – | pest or weed control at 100 ppm [1, 14]: 25 to 74%; pest or weed control at 100 ppm [8, 14]: 25 to 74%; LEPTNO in vivo 1 Day Protectant [9, 14]: + +; pest or weed control at 100 ppm [10, 14]: < 25% |
| CCCC[C@H]1C(=O)O[C@H](C)C(NC(=O)c2cccc(NC(=O)c3nccc(OC)c3O)c2O)C(=O)O[C@@H](C)[C@@H]1OC(=O)CC(C)C (stereo partly shown) [Compound 473] | – | – | – | – | – | – | < 25 | pest or weed control at 100 ppm ([1]; 24 h): 25 to 74%; pest or weed control at 100 ppm [8]: 25 to 74%; LEPTNO in vivo 1 Day Protectant ([9]; in vivo): + +; pest or weed control at 100 ppm ([10]; 24 h): < 25% |
| COCCC(=O)Oc1c(OC)ccnc1C(=O)N[C@H]1COC(=O)[C@H](Cc2ccccc2)[C@@H](OC(=O)CCOC)[C@H](C)OC1=O [Compound 705] | – | – | – | – | – | – | < 25 | PUCCRT in vivo 1 Day Protectant [1, 15]: + +; pest or weed control at 100 ppm [8, 15]: 25 to 74%; LEPTNO in vivo 1 Day Protectant [9, 15]: + +; pest or weed control at 100 ppm [10, 15]: < 25% |
| CC(C)C(=O)O[C@H]1[C@H](C)OC(=O)[C@@H](NC(=O)c2ccncc2O)COC(=O)[C@@H]1Cc1ccccc1 [Compound 513] | – | – | – | – | – | – | < 25 | pest or weed control at 100 ppm [1, 13]: 25 to 74%; pest or weed control at 100 ppm [8, 13]: < 25%; LEPTNO in vivo 1 Day Protectant [9, 13]: + +; pest or weed control at 100 ppm [10, 13]: < 25% |
| Cc1ccnc(C(=O)NC2CC(C)(C)CC(C)(C)C2)c1OC(=O)C(C)C [Compound 571] | – | – | – | – | – | – | 25 to 74 | pest or weed control at 100 ppm [1, 13]: < 25%; pest or weed control at 100 ppm [8, 13]: < 25%; pest or weed control at 100 ppm [9, 13]: 25 to 74%; pest or weed control at 100 ppm [10, 13]: < 25% |
| COc1ccnc(C(=O)N[C@H]2COC(=O)[C@H](Cc3ccccc3)[C@@H](OC(=O)C(C)C)[C@H](C)OC2=O)c1OC(=O)OCc1ccccc1 [Compound 695] | < 80 | < 80 | > 80 | < 80 | < 80 | < 80 | < 25 | PUCCRT in vivo 1 Day Protectant [1, 15]: + +; LEPTNO in vivo 1 Day Protectant [9, 15]: + +; pest or weed control at 100 ppm [10, 15]: < 25% |
| COc1ccnc(C(=O)N[C@H]2CC3CC2[C@H](COCc2cccc(C(F)(F)F)c2)C3)c1O (stereo partly shown) [Compound 294] | < 80 | > 80 | > 80 | > 80 | > 80 | < 80 | < 25 | pest or weed control at 100 ppm [1, 12]: < 25%; LEPTNO in vivo 1 Day Protectant [9, 12]: + +; pest or weed control at 100 ppm [10, 12]: < 25% |
| COc1ccnc(C(=O)N[C@H]2CO[C@@H](C(C)Cc3ccc(C(C)(C)C)cc3)OC2)c1OC(C)=O (stereo partly shown) [Compound 593] | < 80 | – | < 80 | < 80 | – | < 80 | < 25 | PUCCRT in vivo 1 Day Protectant [1, 13]: + +; inhibition at 25 ppm ([3]; 25 ppm in the growth medium): < 80%; inhibition at 25 ppm ([6]; 25 ppm in the growth medium): < 80%; pest or weed control at 100 ppm [8, 13]: 25 to 74%; pest or weed control at 100 ppm [10, 13]: < 25% |
| COc1ccnc(C(=O)N[C@H]2COC(=O)[C@H](Cc3ccccc3)[C@@H](OC(=O)C(C)C)[C@H](C)OC2=O)c1O[Si](C)(C)C(C)(C)C [Compound 720] | – | – | – | – | – | – | < 25 | PUCCRT in vivo 1 Day Protectant [1, 15]: + +; SEPTTR in vivo 1 Day Protectant [8, 15]: + +; LEPTNO in vivo 1 Day Protectant [9, 15]: + +; pest or weed control at 100 ppm [10, 15]: < 25% |
